Assay results reported in patent US20160158200A1, “Combinations of Hepatitis C Virus Inhibitors” (priority 2013, published 2016).

test system: HCV genotype-1a variant with glutamine 30 changed to glutamate in the NS5A protein; type: cell-based; details: test compound titrated with BMS-790052 fixed at 200 nM; genotype 1a Q30E replicon
How it was run: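 Synergy was assessed by combining several fixed amounts of an NS5A-targeting compound with a titration of the second compound of interest.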

Structure (SMILES) | Fold-Synergistic 1a (Q30E) [fold]
CC(C)[C@H](NC(=O)C12CCC(C1)C(C)(C)C2O)c1nc(-c2ccc(-c3ccc(-c4c[nH]c([C@@H](NC(=O)C56CCC(C5)C(C)(C)C6O)C(C)C)n4)cc3)cc2)c[nH]1 (single isomer, unassigned) [Compound Y-114] | >100
CCOC(=O)NC(C)(C)C(=O)N[C@H](c1nc(-c2ccc(-c3ccc(-c4c[nH]c([C@@H](NC(=O)C(C)(C)NC(=O)OCC)C(C)(C)C)n4)cc3)cc2)c[nH]1)C(C)(C)C [Compound Q-2] | >100
CC(C)(C)C(NC(=O)C1(O)CCCC1)c1nc(-c2ccc(-c3ccc(-c4c[nH]c(C(NC(=O)C5(O)CCCC5)C(C)(C)C)n4)cc3)cc2)c[nH]1 [Compound L-73] | >100
CC(C)[C@H](NC(=O)c1ccc(F)cc1)c1ncc(-c2ccc(-c3ccc(-c4cnc([C@@H](NC(=O)c5ccc(F)cc5)C(C)C)[nH]4)cc3)cc2)[nH]1 [Compound S-82] | >100
CC(C)CC(=O)N[C@H](c1nc(-c2ccc(-c3ccc(-c4nc([C@@H](NC(=O)CC(C)C)C(C)C)[nH]c4Cl)cc3)cc2)c(Cl)[nH]1)C(C)C [Compound P-48] | >100
CC1(C(NC(=O)C(C)(C)C(O)C2(C)CC2)c2nc(-c3ccc(-c4ccc(-c5c[nH]c(C(NC(=O)C(C)(C)C(O)C6(C)CC6)C6(C)CC6)n5)cc4)cc3)c[nH]2)CC1 (mixture of isomers) [Compound N-156] | >100
CCn1nc(C)cc1C(=O)N[C@H](c1ncc(-c2ccc(-c3ccc(-c4cnc([C@@H](NC(=O)c5cc(C)nn5CC)C(C)C)[nH]4)cc3)cc2)[nH]1)C(C)C [Compound S-99] | >10
CC(C)(C)[C@H](NC(=O)C1(C2(O)CCNCC2)CCC1)c1ncc(-c2ccc(-c3ccc(-c4cnc([C@@H](NC(=O)C5(C6(O)CCOCC6)CCC5)C(C)(C)C)[nH]4)cc3)cc2)[nH]1 [Compound B84] | >100
CC(C)(C)[C@H](NC(=O)C(N)=O)c1nc(-c2ccc(-c3ccc(-c4c[nH]c([C@@H](NC(=O)C(N)=O)C(C)(C)C)n4)cc3)cc2)c[nH]1 [Compound W-42] | >10
O=C(c1cccc2cnccc12)N1CCC[C@H]1c1ncc(-c2ccc(-c3ccc(-c4cnc([C@@H]5CCCN5C(=O)c5cccc6cnccc56)[nH]4)cc3)cc2)[nH]1 [Compound S-203] | <10
CO[C@H](C)[C@H](NC(=O)[C@@]1(C)CCC(F)(F)CO1)c1nc(-c2ccc(-c3ccc(-c4c[nH]c([C@@H](NC(=O)[C@@]5(C)CCC(F)(F)CO5)[C@@H](C)OC)n4)cc3)cc2)c[nH]1 [Compound L-97] | >100
CC(C)[C@H](NC(=O)C(C)(C)NC(=O)OC(C)(C)C)c1ncc(-c2ccc(-c3ccc(-c4cnc([C@@H](NC(=O)C(C)(C)NC(=O)OC(C)(C)C)C(C)C)[nH]4)cc3)cc2)[nH]1 [Compound Y-26] | >100
COC(c1ccccc1)C1(C(=O)N[C@H](c2nc(-c3ccc(-c4ccc(-c5c[nH]c([C@@H](NC(=O)C6(C(OC)c7ccccc7)CC6)C(C)(C)C)n5)cc4)cc3)c[nH]2)C(C)(C)C)CC1 (single isomer, unassigned) [Compound N-137A] | >100
CC(C)(C)[C@H](NC(=O)C1(COCc2ccccc2)COC1)c1nc(-c2ccc(-c3ccc(-c4c[nH]c([C@@H](NC(=O)C5(COCc6ccccc6)COC5)C(C)(C)C)n4)cc3)cc2)c[nH]1 [Compound L-124] | >100
CC(C)(C)[C@H](NC(=O)C(C)(C)S(C)(=O)=O)c1nc(-c2ccc(-c3ccc(-c4cnc([C@@H](NC(=O)C(C)(C)S(C)(=O)=O)C(C)(C)C)[nH]4)cc3)cc2)c[nH]1 [Compound B-180] | >100
COCC(NC(=O)C(C)(C)C)c1nc(-c2ccc(-c3ccc(-c4c[nH]c(C(COC)NC(=O)C(C)(C)C)n4)cc3)cc2)c[nH]1 [Compound L-105] | >100
CC(C)[C@H](N[S+]([O-])C(C)(C)C)c1ncc(-c2ccc(-c3ccc(-c4cnc([C@@H](N[S+]([O-])C(C)(C)C)C(C)C)[nH]4)cc3)cc2)[nH]1 (single isomer, unassigned) [Compound Y-59] | >100
CC1(C(=O)N[C@H](c2ncc(-c3ccc(-c4ccc(-c5cnc([C@@H](NC(=O)C6(C)CCC(F)(F)CC6)C6(C)CC6)[nH]5)cc4)cc3)[nH]2)C2(C)CC2)CCC(F)(F)CC1 [Compound P-133] | >100
CC(C)(C)[C@H](NC(=O)C1(C2(O)CCC(F)(F)CC2)CC1)c1ncc(-c2ccc(-c3ccc4nc([C@@H](NC(=O)C5(C6(O)CCC(F)(F)CC6)CC5)C(C)(C)C)[nH]c4c3)cc2)[nH]1 [Compound B58B] | >100
CC1(OC(=O)N2CC(F)CC2C(=O)NC(c2nc(-c3ccc(-c4ccc(-c5c[nH]c(C(NC(=O)C6CC(F)CN6C(=O)OC6(C)CC6)C(C)(C)C)n5)cc4)cc3)c[nH]2)C(C)(C)C)CC1 (centres unmarked) [Compound W-119] | >100
CC(C)[C@H](NC(=O)n1c2ccccc2c2ccccc21)c1ncc(-c2ccc(-c3ccc(-c4cnc([C@@H](NC(=O)n5c6ccccc6c6ccccc65)C(C)C)[nH]4)cc3)cc2)[nH]1 [Compound S-233] | >100

Structure (SMILES) | Fold-Synergistic 1a (Q30E) [fold]
CC(C)[C@H](NC(=O)C(C)(C)CF)c1ncc(-c2ccc(-c3ccc(-c4cnc([C@@H](NC(=O)C(C)(C)CF)C(C)C)[nH]4)cc3)cc2)[nH]1 [Compound P-72] | >100
CC(C)(C)C(=O)NC(c1nc(-c2ccc(-c3ccc(-c4c[nH]c(C(NC(=O)C(C)(C)C)C5(C(F)(F)F)CC5)n4)cc3)cc2)c[nH]1)C1(C(F)(F)F)CC1 (single isomer, unassigned) [Compound N-107B] | >10
CC(C)(C)[C@H](NC(=O)C(=O)N1CCCC(F)(F)C1)c1nc(-c2ccc(-c3ccc(-c4c[nH]c([C@@H](NC(=O)C(=O)N5CCCC(F)(F)C5)C(C)(C)C)n4)cc3)cc2)c[nH]1 [Compound W-46A] | >100
CC(C)(C)[C@H](NC(=O)c1ccccc1OC(F)F)c1nc(-c2ccc(-c3ccc(-c4c[nH]c([C@@H](NC(=O)c5ccccc5OC(F)F)C(C)(C)C)n4)cc3)cc2)c[nH]1 [Compound P-25] | >100
CC(C)(C)[C@H](NC(=O)C1CCC(F)(F)CC1)c1ncc(-c2cc3cc4oc(-c5cnc([C@@H](NC(=O)C6CCC(F)(F)CC6)C(C)(C)C)[nH]5)cc4cc3o2)[nH]1 [Compound B59] | >100
CC(C)[C@H](NC(=O)c1ccc(C#N)cc1)c1ncc(-c2ccc(-c3ccc(-c4cnc([C@@H](NC(=O)c5ccc(C#N)cc5)C(C)C)[nH]4)cc3)cc2)[nH]1 [Compound S-81] | >100
CC(C)[C@H](NC(=O)[C@H](C)c1ccccc1)c1ncc(-c2ccc(-c3ccc(-c4cnc([C@@H](NC(=O)[C@H](C)c5ccccc5)C(C)C)[nH]4)cc3)cc2)[nH]1 [Compound P-64] | >100
CC(=O)N[C@H](c1ncc(-c2ccc(-c3ccc(-c4cnc([C@@H](NC(C)=O)C(C)C)[nH]4)cc3)cc2)[nH]1)C(C)C [Compound S-49] | >10
COc1ccc2c(C(=O)N3CCC[C@H]3c3ncc(-c4ccc(-c5ccc(-c6cnc([C@@H]7CCCN7C(=O)c7nccc8cc(OC)ccc78)[nH]6)cc5)cc4)[nH]3)nccc2c1 [Compound S-198] | >100
CC(C)(C)C(NC(=O)C1CCCO1)c1nc(-c2ccc(-c3ccc(-c4c[nH]c(C(NC(=O)C5CCCO5)C(C)(C)C)n4)cc3)cc2)c[nH]1 [Compound L-64] | >100
CC(C)(C)C(NC(=O)C1CC(=O)c2ccccc2C1)c1nc(-c2ccc(-c3ccc(-c4c[nH]c(C(NC(=O)C5CC(=O)c6ccccc6C5)C(C)(C)C)n4)cc3)cc2)c[nH]1 (mixture of isomers) [Compound S-256] | >100
CC(C)[C@H](NC(=O)c1ccc(F)c(F)c1)c1ncc(-c2ccc(-c3ccc(-c4cnc([C@@H](NC(=O)c5ccc(F)c(F)c5)C(C)C)[nH]4)cc3)cc2)[nH]1 [Compound S-16] | >100
CN(C(=O)OC(C)(C)C)C(C)(C)C(=O)N[C@H](c1nc(-c2ccc(-c3ccc(-c4c[nH]c([C@@H](NC(=O)C(C)(C)N(C)C(=O)OC(C)(C)C)C(C)(C)C)n4)cc3)cc2)c[nH]1)C(C)(C)C.O=C(O)C(F)(F)F.O=C(O)C(F)(F)F [Compound L-8] | >100
CC(C)(C)C(NC(=O)C1(C)CC1(F)F)c1nc(-c2ccc(-c3ccc(-c4c[nH]c(C(NC(=O)C5(C)CC5(F)F)C(C)(C)C)n4)cc3)cc2)c[nH]1 (single isomer, unassigned) [Compound L-58a] | >100
COC(=O)N(C)C1(C(=O)N[C@H](c2nc(-c3ccc(-c4ccc(-c5c[nH]c([C@@H](NC(=O)C6(N(C)C(=O)OC)CC6)C6CC6)n5)cc4)cc3)c[nH]2)C2CC2)CC1 [Compound L-34] | >100
CC(C)(C)[C@H](NC(=O)C1CCC(F)(F)CC1)c1ncc(-c2ccc(-c3ccc4nc([C@@H](NC(=O)C5CCC(F)(F)CC5)C(C)(C)C)[nH]c4c3)cc2)[nH]1 [Compound B58] | >100
CC(C)(C)[C@H](NC(=O)c1c(F)cccc1Cl)c1nc(-c2ccc(-c3ccc(-c4c[nH]c([C@@H](NC(=O)c5c(F)cccc5Cl)C(C)(C)C)n4)cc3)cc2)c[nH]1 [Compound N-66] | >100
CC(C)[C@H](NC(=O)c1ccccc1C#N)c1ncc(-c2ccc(-c3ccc(-c4cnc([C@@H](NC(=O)c5ccccc5C#N)C(C)C)[nH]4)cc3)cc2)[nH]1 [Compound S-94] | >100
CC(C)(C)[C@H](NC(=O)c1ccncc1F)c1nc(-c2ccc(-c3ccc(-c4c[nH]c([C@@H](NC(=O)c5ccncc5F)C(C)(C)C)n4)cc3)cc2)c[nH]1 [Compound P-24] | >100
CC(C)(C)OC(=O)NC1(C(=O)N[C@H](c2nc(-c3ccc(-c4ccc(-c5c[nH]c([C@@H](NC(=O)C6(NC(=O)OC(C)(C)C)CCOCC6)C(C)(C)C)n5)cc4)cc3)c[nH]2)C(C)(C)C)CCOCC1 [Compound W-132] | >100
